Measurements: patent US12441695B2, “Substituted thiadiazinone dioxide and preparation method therefor, herbicidal composition, and application therefor” (Qingdao Kingagroot Chemical Compound Co., Ltd., priority 2019, dated 2025)

Legend:
gramineous weeds = conditions: in vivo; cited from earlier work
[1] = tested on: monocotyledonous and dicotyledonous weeds; test: Experiment on weeding effect in post-emergence stage (weeds); type: in vivo; conditions: 600 g/ha active ingredient plus water 450 kg/ha, 3 weeks after application, fresh weight control rate; for Amaranthus retroflexus activity level (growth control rate): fomesafen-resistant Amaranthus retroflexus
Procedure, shortened: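 Greenhouse pot-grown weeds and crops sprayed post-emergence 2–3 weeks after sowing with compound in acetone/Tween 80/water. Fresh-weight growth control scored after 3 weeks on a 0–5 scale (5: >85%, 0: <5%).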

[2] = tested on: major crops (wheat, corn, rice, soybean, cotton, oilseed rape, millet, sorghum); test: Experiment on weeding effect in post-emergence stage (crops); type: in vivo; conditions: 600 g/ha active ingredient plus water 450 kg/ha, 3 weeks after application; for corn plant damage level (growth control rate): crop corn; for rice plant damage level (growth control rate): crop rice; for soybean plant damage level (growth control rate): crop soybean
Procedure, shortened: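 Weed and crop seeds were sown in soil-filled pots, covered with 0.5–2 cm soil and grown in a greenhouse. Plants were sprayed 2–3 weeks after sowing using a spray tower, with compound dissolved in acetone plus Tween 80 and diluted in water. Effect was expressed as fresh-weight growth control rate.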

Row | SMILES | effect on gramineous weeds (gramineous weeds) | Amaranthus retroflexus activity level (growth control rate) [1] | Digitaria sanguinalis activity level (growth control rate) [1] | Echinochloa crus-galli activity level (growth control rate) [1] | Setaria viridis activity level (growth control rate) [1] | corn plant damage level (growth control rate) [2] | rice plant damage level (growth control rate) [2] | soybean plant damage level (growth control rate) [2]
1 | CC(C)N1C(=O)c2ccccc2NS1(=O)=O [bentazone] | ineffective | – | – | – | – | – | – | –
2 | CC(C)N1C(=O)c2cccc(F)c2NS1(=O)=O [D, reference compound] | – | 2 (Level 2: growth control rate is greater than or equal to 20% and less than 40%) | 1 (Level 1: growth control rate is greater than or equal to 500 and less than 200%) | 1 (Level 1: growth control rate is greater than or equal to 500 and less than 200%) | 2 (Level 2: growth control rate is greater than or equal to 20% and less than 40%) | 0 (Level 0: growth control rate is less than 5%) | 0 (Level 0: growth control rate is less than 5%) | 1 (Level 1: growth control rate is greater than or equal to 500 and less than 200%)
3 | CC(C)N1C(=O)c2cc(F)cc(Br)c2NS1(=O)=O [Compound 143] | – | 5 (Level 5: growth control rate is above 85%) | 5 (Level 5: growth control rate is above 85%) | 4 (Level 4: growth control rate is greater than or equal to 60% and less than 85%) | 5 (Level 5: growth control rate is above 85%) | 1 (Level 1: growth control rate is greater than or equal to 500 and less than 200%) | 0 (Level 0: growth control rate is less than 5%) | 1 (Level 1: growth control rate is greater than or equal to 500 and less than 200%)
4 | CC(C)N1C(=O)c2cc(F)cc(F)c2N(C(=O)N(C)C)S1(=O)=O [Compound 223] | – | 5 (Level 5: growth control rate is above 85%) | 5 (Level 5: growth control rate is above 85%) | 3 (Level 3: growth control rate is greater than or equal to 40% and less than 60%) | 5 (Level 5: growth control rate is above 85%) | 0 (Level 0: growth control rate is less than 5%) | 0 (Level 0: growth control rate is less than 5%) | –
